# Laboratory results as given in patent publication US7041785B1, “B1-bradykinin receptor antagonists and use thereof” (Université de Sherbrooke, priority 1996, dated 2006).
# Where two headings read alike, the source gives them in different places. Non-standard residues stand in square brackets, D forms with d. Residues, ends and D or L forms follow the SMILES beside them. Tyr(3,5-I2) = N[C@@H](Cc1cc(I)c(O)c(I)c1)C(=O)O; d2Nal = N[C@H](Cc1ccc2ccccc2c1)C(=O)O; Ahx = NCCCCCC(=O)O; Sar = CNCC(=O)O
# Tests used:
# [1] = molecular target: T1, angiotensin-converting enzyme (ACE) from rabbit lungs (Oryctolagus cuniculus, UniProt P12822); test: Metabolic degradation by purified angiotensin-converting enzyme, HPLC analysis; type: in vitro ADME; parameters: purified angiotensin-converting enzyme (ACE) from rabbit lungs; purchased Sigma, St-Louis, Mo; host or cells: purified from rabbit lungs
# T1 sequence (P12822 34-1310): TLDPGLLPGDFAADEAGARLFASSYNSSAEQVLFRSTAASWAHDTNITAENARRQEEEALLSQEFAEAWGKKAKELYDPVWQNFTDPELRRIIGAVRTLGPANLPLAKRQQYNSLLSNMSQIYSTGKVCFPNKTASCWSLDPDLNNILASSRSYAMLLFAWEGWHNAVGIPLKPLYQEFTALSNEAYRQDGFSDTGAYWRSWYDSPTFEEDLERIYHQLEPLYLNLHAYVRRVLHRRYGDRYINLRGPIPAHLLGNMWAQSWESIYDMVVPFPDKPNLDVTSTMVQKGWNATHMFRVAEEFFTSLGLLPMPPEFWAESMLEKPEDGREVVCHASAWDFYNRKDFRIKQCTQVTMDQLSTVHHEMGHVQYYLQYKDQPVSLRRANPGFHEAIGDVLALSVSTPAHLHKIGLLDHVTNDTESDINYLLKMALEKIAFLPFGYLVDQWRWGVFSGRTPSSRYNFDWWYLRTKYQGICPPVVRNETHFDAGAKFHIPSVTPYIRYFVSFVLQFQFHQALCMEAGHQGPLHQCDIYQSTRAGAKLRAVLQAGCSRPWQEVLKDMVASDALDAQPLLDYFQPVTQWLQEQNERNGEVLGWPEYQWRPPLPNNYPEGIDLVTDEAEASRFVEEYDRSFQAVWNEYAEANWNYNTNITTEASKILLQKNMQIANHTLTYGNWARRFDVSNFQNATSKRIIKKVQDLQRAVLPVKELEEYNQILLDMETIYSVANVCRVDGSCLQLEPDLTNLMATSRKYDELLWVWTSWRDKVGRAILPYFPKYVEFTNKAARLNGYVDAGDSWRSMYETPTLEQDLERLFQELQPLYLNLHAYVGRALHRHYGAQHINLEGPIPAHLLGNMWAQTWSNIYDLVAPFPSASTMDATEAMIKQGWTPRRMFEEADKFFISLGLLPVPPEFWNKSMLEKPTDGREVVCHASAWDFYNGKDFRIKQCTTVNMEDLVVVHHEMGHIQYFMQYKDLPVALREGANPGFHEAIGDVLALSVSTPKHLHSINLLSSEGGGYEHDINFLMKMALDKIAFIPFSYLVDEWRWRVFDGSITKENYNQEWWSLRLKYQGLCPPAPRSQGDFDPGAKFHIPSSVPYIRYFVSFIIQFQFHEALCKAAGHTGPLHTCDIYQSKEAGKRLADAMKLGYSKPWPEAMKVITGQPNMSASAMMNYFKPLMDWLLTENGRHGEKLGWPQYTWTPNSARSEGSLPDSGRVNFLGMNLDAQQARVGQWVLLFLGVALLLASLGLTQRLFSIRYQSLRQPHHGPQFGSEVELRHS
# Procedure: The metabolic stability of various kinin-related peptides was evaluated by incubating the peptide in the presence of purified angiotensin-converting enzyme (ACE) from rabbit lungs (purchased from Sigma, St-Louis, Mo.) dissolved in phosphate buffered saline (PBS) (50 mmol/L, pH 7.5 containing 300 mmoL/L NaCl); the final concentration of enzyme was 45 μg/mL. The experimental protocol for the measurement of ACE activity has been described elsewhere^15,16. Briefly, 200 μmol/L of peptides (40 μL) were placed in a PBS buffer and incubated for 5 min at 37EC before adding 8.5 μL of ACE (total volume of the reaction medium; 190 μL). Samples were withdrawn at 30 min intervals, immersed in boiling water for 5 min, then cooled on ice and centrifuged (5 min) before proceeding to analysis of peptides by high pressure liquid chromatography (HPLC). Results of ACE metabolism are expressed in percent of kinin degradation following the incubation (30 min) of kinin substrates with the enzyme.
# Pure peptides and metabolic products were analysed by reverse-phas HPLC on a C18 μBondapak column (4.6 mm×25 cm) (Waters) of 10-μm particle size. The peptides and their fragments were eluted at the rate of 2.0 mL/min. with a linear gradient ranging from 5 to 65% of acetonitrile/TFA 0.05%/water over 20 min. at room temperature. The elution positions of these peptides were determined by following the absorbance at 214 nm. For each assay, 50 μL of the reaction medium (treated or not with ACE) were extracted and injected into the column. Concentrations of the peaks products, different from the peaks of the peptide substrate, were estimated using a computer software program (Baseline 810; Waters) that controlled also all the chromatography operations. Isolated metabolites and substrates were collected and identified by Electrospray mass spectrometry (positive mode).
# [2] = system: T2, angiotensin-converting enzyme (ACE); test: as above; type: in vitro ADME, rabbit; conditions: rabbit, isolated enzyme ace, pH 7.5
# T2 construct: purified angiotensin-converting enzyme (ACE) from rabbit lungs; purchased Sigma, St-Louis, Mo; host or cells: purified from rabbit lungs
# In short: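 Purified rabbit lung ACE (45 μg/mL final) in PBS (50 mmol/L, pH 7.5, 300 mmol/L NaCl) was incubated with peptides at 37 °C; peptides were pre-incubated 5 min before enzyme addition and samples were boiled to stop the reaction. Percent kinin degradation after 30 min was quantified by C18 reverse-phase HPLC at 214 nm, with metabolites identified by electrospray MS.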
SMILES,"Less susceptible to ACE proteolytic degradation, relative to Lys(Leu8)desArgBK [1]","metabolised at 0.5 h, 42.1 μmol/L ([2]; 30 min incubation of peptide (200 μmol/L) with ACE, 37 C, read-out: ACE (% degradation)) [%]","metabolised at 0.5 h, 42.1 μmol/L [2] [%]"
"CC[C@H](C)[C@H](NC(=O)[C@@H](Cc1ccc2ccccc2c1)NC(=O)[C@H](CO)NC(=O)[C@H](Cc1ccccc1)NC(=O)CNC(=O)[C@@H]1CCCN1C(=O)[C@@H]1CCCN1C(=O)[C@H](CCCNC(=N)N)NC(=O)CNC)C(=O)O [Compound 26, Sar(D-βNal^7, Ile^8)desArg^9BK] (H-[Sar]RPPGFS[d2Nal]I-OH; N-terminus and C-terminus assumed)",2-5 times,0,–
"CC(=O)N[C@@H](Cc1ccc(O)cc1)C(=O)NCCCCCC(=O)N[C@@H](CCCCN)C(=O)N[C@@H](CCCNC(=N)N)C(=O)N1CCC[C@H]1C(=O)N1CCC[C@H]1C(=O)NCC(=O)N[C@@H](Cc1ccccc1)C(=O)N[C@@H](CO)C(=O)N1CCC[C@H]1C(=O)N[C@@H](CC(C)C)C(=O)O [Compound 27, AcTyrεAhxLys(Leu^8)desArg^9BK]",2-5 times,–,52 ± 1
"CNCC(=O)N[C@@H](Cc1ccc(O)cc1)C(=O)NCCCCCC(=O)N[C@@H](CCCCN)C(=O)N[C@@H](CCCNC(=N)N)C(=O)N1CCC[C@H]1C(=O)N1CCC[C@H]1C(=O)NCC(=O)N[C@@H](Cc1ccccc1)C(=O)N[C@@H](CO)C(=O)N1CCC[C@H]1C(=O)N[C@@H](CC(C)C)C(=O)O [Compound 28, SarTyrεAhxLys(Leu^8)desArg^9BK]",2-5 times,–,34 ± 3
"CC[C@H](C)[C@H](NC(=O)[C@@H](Cc1ccc2ccccc2c1)NC(=O)[C@H](CO)NC(=O)[C@H](Cc1ccccc1)NC(=O)CNC(=O)[C@@H]1CCCN1C(=O)[C@@H]1CCCN1C(=O)[C@H](CCCNC(=N)N)NC(=O)[C@H](CCCCN)NC(=O)CCCCCNC(=O)[C@H](Cc1ccc(O)cc1)NC(=O)CNC)C(=O)O [Compound 29, SarTyrεAhxLys(D-βNal^7, Ile^8)desArg^9BK] (H-[Sar]Y[Ahx]KRPPGFS[d2Nal]I-OH; N-terminus and C-terminus assumed)",2-5 times,–,15 ± 1
"CC[C@H](C)[C@H](NC(=O)[C@@H](Cc1ccc2ccccc2c1)NC(=O)[C@H](CO)NC(=O)[C@H](Cc1ccccc1)NC(=O)CNC(=O)[C@@H]1CCCN1C(=O)[C@@H]1CCCN1C(=O)[C@H](CCCNC(=N)N)NC(=O)[C@H](CCCCN)NC(=O)CCCCCNC(=O)[C@H](Cc1cc(I)c(O)c(I)c1)NC(=O)CNC)C(=O)O [Compound 30, SarTyr(3,5-I)εAhxLys(D-βNal^7, Ile^8)desArg^9BK] (H-[Sar][Tyr(3,5-I2)][Ahx]KRPPGFS[d2Nal]I-OH; N-terminus and C-terminus assumed)",2-5 times,–,13 ± 1
